# Experimental data taken from ChEMBL document CHEMBL5029177, “Synthetic enamine naphthoquinone derived from lawsone as cytotoxic agents assessed by in vitro and in silico evaluations” (Bioorg Med Chem Lett, 2021).
# Activity calls are given as the source filed them. The calls are words filed in the database; no cut-off is given here.
# How the values were obtained:
# HCT-116 [1] = assay: Antiproliferative activity against human HCT-116 cells assessed as reduction in cell viability by MTT assay; type: functional, cell-based
# PC-3 = assay: Antiproliferative activity against human PC-3 cells assessed as reduction in cell viability by MTT assay; type: functional, cell-based
# HL-60 = assay: Antiproliferative activity against human HL-60 cells assessed as reduction in cell viability by MTT assay; type: functional, cell-based
# SNB-19 = assay: Antiproliferative activity against human SNB-19 cells assessed as reduction in cell viability by MTT assay; type: functional, cell-based
# HCT-116 [2] = assay: Induction of cell cycle arrest in human HCT-116 cells assessed as accumulation at S phase at 20 uM after 24 hrs by PI-staining based flow cytometric analysis (reference value: 39.7%); type: functional
# HCT-116 [3] = assay: Induction of cell cycle arrest in human HCT-116 cells after 24 hrs by PI-staining based flow cytometric analysis; type: functional
compound,measurement,setting,value
O=C1C=C(NCCCNc2nc(N3CCOCC3)nc(N3CCOCC3)n2)C(=O)c2ccccc21,IC50,HCT-116 [1],57.5 µM
same,IC50,PC-3,41.8 µM
same,IC50,HL-60,53.4 µM
same,IC50,SNB-19,126 µM
COc1cccc2c1C(=O)c1c(O)c3c(c(O)c1C2=O)C[C@@](O)(C(=O)CO)C[C@@H]3O[C@H]1C[C@H](N)[C@H](O)[C@H](C)O1 [DOXORUBICIN],IC50,HL-60,2.05 µM
same,IC50,SNB-19,0.76 µM
Cc1ccc(S(=O)(=O)OCCNC2=CC(=O)c3ccccc3C2=O)cc1,IC50,HCT-116 [1],81.8 µM
same,IC50,PC-3,59.2 µM
same,IC50,HL-60,> 200 µM
same,IC50,SNB-19,21.1 µM
O=C1C=C(NCc2ccccn2)C(=O)c2ccccc21,IC50,HCT-116 [1],13.5 µM
same,IC50,PC-3,16.5 µM
same,IC50,HL-60,4.59 µM
same,IC50,SNB-19,23.1 µM
same,Activity,HCT-116 [2],47.57%
O=C1C=C(NCc2ccccc2)C(=O)c2ccccc21,IC50,HCT-116 [1],130 µM
same,IC50,PC-3,70.6 µM
same,IC50,HL-60,86.5 µM
same,IC50,SNB-19,80 µM
NCCCNC1=CC(=O)c2ccccc2C1=O,IC50,HCT-116 [1],59.6 µM
same,IC50,PC-3,63.2 µM
same,IC50,HL-60,30 µM
same,IC50,SNB-19,71.3 µM
CS(=O)(=O)OCCNC1=CC(=O)c2ccccc2C1=O,IC50,HCT-116 [1],16.3 µM
same,IC50,PC-3,62.8 µM
same,IC50,HL-60,27.5 µM
same,IC50,SNB-19,31.2 µM
O=C1C=C(N2CCCC2)C(=O)c2ccccc21,IC50,HCT-116 [1],159 µM
same,IC50,PC-3,> 200 µM
same,IC50,HL-60,111 µM
same,IC50,SNB-19,> 200 µM
CNC1=CC(=O)c2ccccc2C1=O,IC50,HCT-116 [1],55.7 µM
same,IC50,PC-3,93.3 µM
same,IC50,HL-60,41.4 µM
same,IC50,SNB-19,114 µM
O=C1C=C(NCCCNc2ccnc3cc(Cl)ccc23)C(=O)c2ccccc21,IC50,HCT-116 [1],11.5 µM
same,IC50,PC-3,8.39 µM
same,IC50,HL-60,4.78 µM
same,IC50,SNB-19,16.9 µM
same,Activity,HCT-116 [3],inactive
O=c1[nH]cc(F)c(=O)[nH]1 [FLUOROURACIL],IC50,HCT-116 [1],19.3 µM
same,IC50,PC-3,32.9 µM
same,Activity,HCT-116 [2],66.6%
O=C1C=C(NCCO)C(=O)c2ccccc21,IC50,HCT-116 [1],70.3 µM
same,IC50,PC-3,107 µM
same,IC50,HL-60,49.8 µM
same,IC50,SNB-19,108 µM
